# Results as given in patent US20220268691A1, “MICROSCOPE ADAPTOR AND SAMPLE MOUNT FOR MAGNETICALLY ACTUATING SAMPLE” (University of Southern California, priority 2021, published 2022).
# Legend:
# [1] = system: Pancreatic spheroids; experiment: Magnetogel toxicity study (viability of pancreatic spheroids in M-gel); assay type: cell-based; conditions: M-gel/cells treated with 10 μL of gemcitabine; 96-well culture plate; sextuplet
# Method: Pancreatic spheroids were grown on a 96-well culture plate. All measurements were performed in sextuplet (6×). The viability from these wells was compared against two controls: Matrigel/cells only, and M-gel/cells treated with 10 μL of gemcitabine (GEM), a common chemotherapeutic agent (as shown in FIG. 2B).
# [2] = system: PDAC; conditions: GEM-based treatments; pancreatic cancer patients; cited from earlier work
smiles,measurement,setting,value
"Nc1ccn([C@@H]2O[C@H](CO)[C@@H](O)C2(F)F)c(=O)n1 [GEM, gemcitabine]",viability of cells (GEM control),[1],cells killed
same,response to treatment observed in patients,[2],37 % of patients
